Legend:
[1] = Population pharmacokinetic analysis of certepetide plasma concentrations (first-in-human trial NCT03517176); assay type: in vivo; settings: for WT on Vc, effect of weight on Vc / WT on Vp, effect of weight on Vp: power model exponent
Description: The clinical aspects of this study were conducted at 3 clinical sites in Australia. All subjects gave their informed consent. The study enrolled subjects with metastatic PDAC and was a rising dose design, with certepetide doses of 0.2, 0.8, 1.6, and 3.2 mg/kg body weight. Each subject received a certepetide monotherapy run‐in followed by 28‐day cycles of certepetide with standard‐of‐care chemotherapy (nab‐paclitaxel and gemcitabine), as previously described.[19] Each 28‐day cycle involved dosing with nab‐paclitaxel, gemcitabine, and certepetide on days 1, 8, and 15. In each dosing instance, nab‐paclitaxel was given first intravenously at a dose of 125 mg/m^2 over 30 minutes. This was immediately followed by the administration of certepetide as a slow intravenous push over 1 minute. Gemcitabine was given as an intravenous infusion at a dose of 1000 mg/m^2 over 30 minutes. Samples for PK analysis were collected before certepetide dosing and at 3, 15, and 30 minutes and 1, 3, and 6 hours after completion of the certepetide infusion. PK collections were performed during a monotherapy run‐in period and on day 1 of chemotherapy cycles 1 and 6. Modeling was performed with all available data.
Certepetide concentrations in human plasma were determined using a liquid chromatography‐tandem mass spectrometry method across a concentration range of 50.0‐2500 ng/mL, with 50.0 ng/mL as the lower limit of quantification. Briefly, a plasma sample was spiked with a deuterated internal standard and then precipitated by methanol. After centrifugation, the supernatant was transferred to a clean tube and evaporated under nitrogen. Following reconstitution with 5% methanol:water, the sample was injected into a Shimadzu Nexera UPLC that used a Kinetex EVO‐C18 column for separation using first mobile phase A (0.1% formic acid in deionized water) followed by mobile phase B (0.1% formic acid in methanol). The multiple reaction monitoring transition was monitored on an ABSciex QTRAP 5500 mass spectrometer. The transitions used for certepetide and deuterated certepetide (+6) were 494.9 → 70.1 and 497.7 → 75.0, respectively. For intraday runs, the average accuracy and precision were 10.2% and 9.6%, respectively, at a concentration of 150 ng/mL. The inter‐day accuracy and precision were 10.2% and 9.7%, respectively.
The PK analysis dataset was composed of actual dates and times of dose and concentration samples. Post‐dose PK concentration data below the limit of quantification were accounted for using the M1 method (ie, excluded from the analysis).[22] Subject covariates at baseline were derived from the source data at the baseline visit, the screening visit, or another visit before the start of certepetide administration.
NONMEM software (version 7.5.1, ICON Development Solutions)[23] was used to perform nonlinear mixed‐effects modeling. Data assembly, graphical analyses, and model simulations were performed using NONMEM (version 7.5.1) and R (version 4.3.1).
A 2‐compartment model with linear elimination was used as the starting point for model development. Interindividual variability was included in structural model parameters (eg, central volume of distribution [Vc], clearance [CL], peripheral volume of distribution [Vp], and distribution clearance [Q]). Interindividual variability, assumed to have log‐normal distribution, was calculated using Equation (1). (1) θP,i=θP,typical·e^ηP,i
The residual variance was initially modeled using an additive and proportional error model (Equation 4), which accounted for […], assay error, model misspecification, and any potential data issues (eg, incorrect dose or sample collection times). (4) Yij=IPREDij×1+ε1,ij+ε2,ij
Model development continued by adding covariates in a stepwise fashion and assessing the change in objective function value (OFV). […]

[2] = autoradiography; ref data on file; cited from earlier work
Description: (§1) Certepetide is administered as a slow intravenous push over 1 minute shortly after the administration of chemotherapy and/or immunotherapy. Certepetide is thought to be metabolized into its component amino acids, as expected for small peptides.

plasma proteins = settings: ref data on file; cited from earlier work
Description: as §1

[3] = system: patients with unresectable metastatic PDAC; design: method as in PMID 35803294, PMID 36982773; settings: cited from earlier work
[4] = final population PK model, reference 70 kg
[5] = interim population PK model with body weight and age on clearance, typical value

Compound: CC(=O)N[C@H]1CSSC[C@@H](C(N)=O)NC(=O)[C@H](CC(=O)O)NC(=O)[C@@H]2CCCN2C(=O)CNC(=O)[C@H](CCCCN)NC(=O)[C@H](CC(=O)O)NC(=O)CNC(=O)[C@H](CCCNC(=N)N)NC1=O [Certepetide]
- Dose linearity of PK ([1]; concentration-time and dose-normalized curves at 0.2, 0.8, 1.6 and 3.2 mg/kg): linear PKs
- Vc, central volume of distribution ([1]; final population PK model (2-compartment, linear elimination, NONMEM), 31 patients with metastatic PDAC, 0.2-3.2 mg/kg IV push over 1 min with nab-paclitaxel and gemcitabine, plasma LC-MS/MS, typical value, reference 70 kg): 5.87 L
- Q, intercompartmental clearance ([1]; final population PK model, 31 patients with metastatic PDAC, IV, typical value): 24.9 L/h
- CLR, renal clearance (dependent on CrCL) ([1]; final population PK model, 31 patients with metastatic PDAC, IV, typical value at reference CrCL 90 mL/min, purely model-derived): 4.32 L/h
- Vp, peripheral volume of distribution ([1]; final population PK model, 31 patients with metastatic PDAC, IV, typical value, reference 70 kg): 10.3 L
- CLNR, nonrenal clearance (independent of CrCL) ([1]; final population PK model, 31 patients with metastatic PDAC, IV, typical value, purely model-derived): 2.56 L/h
- WT on Vc, effect of weight on Vc [1, 4]: 0.933
- WT on Vp, effect of weight on Vp [1, 4]: 0.879
- clearance ([1]; human, plasma, iv, interim population PK model with body weight and age on clearance, typical value, reference 70 kg, 60 years, read-out: CL, clearance (converted)): 118 mL/min
- Vc, central volume of distribution ([1]; interim population PK model with body weight and age on clearance, 31 patients with metastatic PDAC, IV, typical value): 5.87 L
- Q, intercompartmental clearance [1, 5]: 25.0 L/h
- Vp, peripheral volume of distribution [1, 5]: 10.3 L
- WT on Vc, effect of weight on Vc ([1]; interim population PK model): 0.940
- WT on Vp, effect of weight on Vp ([1]; interim population PK model): 0.885
- Route of elimination [2]: primarily undergoes renal elimination
- Plasma protein binding (plasma proteins): does not bind to plasma proteins
- Patients with ≥50% reduction in CA19-9 ([3]; cycle 5, day 1, certepetide with nab-paclitaxel and gemcitabine): 20 out of 22
- Dose-limiting toxicities associated with the study drug ([3]; doses 0.2-3.2 mg/kg): no dose‐limiting toxicities

Source: publication PMC11905876, “Population Pharmacokinetic Modeling of Certepetide in Human Subjects With Metastatic Pancreatic Ductal Adenocarcinoma” (Clinical Pharmacology in Drug Development, 2025)
